Measured values published in patent publication US10221129B2, “Inhibitors of human immunodeficiency virus replication” (ViiV HEALTHCARE UK (NO.5) LIMITED, priority 2015, dated 2019).
Where two headings read alike, the source gives them in different places.

Assays:
[1] = tested on: recombinant NL4-3 virus (nef section replaced with Renilla luciferase gene) in MT-2 cells; test: HIV cell culture assay (antiviral activity, luciferase readout); assay type: cell-based
Outline: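 Serial compound dilutions tested in MT-2 cells infected for 4-5 days with 293T-derived NL4-3 virus carrying Renilla luciferase in place of part of nef. Antiviral activity quantified as luciferase activity, read with a live-cell substrate.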

uninfected MT2 cells = test: Compound cytotoxicity, XTT-based colorimetric assay; assay type: cell-based; settings: day 4, XTT
Outline: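 Run under the antiviral-assay protocol but without virus. Viability was read on day 4 and CC50 values were derived from the readout.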

[2] = MT-2 cells infected for 4-5 days with recombinant NL4-3 Renilla luciferase virus, read-out: EC50

SMILES | EC50 ([1]; MT-2 cells infected for 4-5 days with recombinant NL4-3 Renilla luciferase virus) [nM] | CC50 (uninfected MT2 cells) [nM] | EC50 ([1]; Renilla, NL43, MT-2 cells infected for 4-5 days with recombinant NL4-3 Renilla luciferase virus) [nM] | EC50 [1, 2] [nM]
CC1CCc2ccccc2N1S(=O)(=O)NC(=O)N[C@@H](Cc1cc(F)cc(F)c1)C(=O)N(C)c1ccc2scnc2c1 (single isomer, unassigned) [VN-11] | 90 | 93500 |  | 
CC1CN(S(=O)(=O)NC(=O)N[C@@H](Cc2cc(F)cc(F)c2)C(=O)N(C)c2ccc3scnc3c2)c2ncccc21 (single isomer, unassigned) [VN-15] |  | > 100000 | 30 | 
COc1ccc(N(C)C(=O)[C@H](Cc2ccccc2)NC(=O)NS(=O)(=O)NCc2n[nH]c3ccccc23)cc1 [JB-66] |  | > 100000 |  | 1180
CN(C(=O)[C@H](Cc1cc(F)cc(F)c1)NC(=O)NS(=O)(=O)N1CCc2cncnc21)c1ccc2scnc2c1 [VN-19] |  | 70500 |  | 680
CN(C(=O)[C@H](Cc1cc(F)cc(F)c1)NC(=O)NS(=O)(=O)n1ccc2cncnc21)c1ccc2scnc2c1 [VN-20] |  | > 100000 |  | 940
